The assay has as its system HCT116 colorectal cancer cells. The experiment in a line: Cisplatin sensitization assay (96 h cell viability MTS).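 Note: Test-compound concentration that lowers the Cisplatin IC50 by a set fold.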 The format is cell-based. The conditions noted are these: compound and Cisplatin added simultaneously, Cisplatin sensitization value. Summed up: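 Viability read by MTS (1 h at 37° C) after 96 h co-exposure at 37° C, 5% CO2. Test compound and cisplatin were dosed simultaneously in a full concentration matrix, each 2-fold serially diluted from 10 μM final; sensitization values binned in μM.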

The record followed here is patent publication US11370798B2 (Vertex Pharmaceuticals Incorporated, priority 2012, dated 2022).

Turning to `CN1CCN(c2ccncc2NC(=O)c2c(N)nn3cc(F)cnc23)CC1=O` [I-N-209, 2-amino-6-fluoro-N-(4-(4-methyl-3-oxopiperazin-1-yl)pyridin-3-yl)pyrazolo[1,5-a]pyrimidine-3-carboxamide], the “Cisplatin Sensitization Assay” value is listed as “+++ (Cisplatin sensitization value of <0.02 μM)”.

As to `Nc1nn2cc(F)cnc2c1C(=O)Nc1cnccc1N1CCS(=O)(=O)CC1` [I-N-210, 2-amino-N-(4-(1,1-dioxidothiomorpholino)pyridin-3-yl)-6-fluoropyrazolo[1,5-a]pyrimidine-3-carboxamide], the “Cisplatin Sensitization Assay” value is reported as “+++ (Cisplatin sensitization value of <0.02 μM)”.

On to `Nc1nn2cc(F)cnc2c1C(=O)Nc1cncc(F)c1N1CCN(C(=O)C2CCN(C3COC3)CC2)CC1` [I-N-211, 2-amino-6-fluoro-N-(5-fluoro-4-(4-(1-(oxetan-3-yl)piperidine-4-carbonyl)piperazin-1-yl)pyridin-3-yl)pyrazolo[1,5-a]pyrimidine-3-carboxamide], for which the “Cisplatin Sensitization Assay” value is on record as “++ (Cisplatin sensitization value>0.02 μM but <0.2 μM)”.

In the case of `CN1CCN(c2c(F)cncc2NC(=O)c2c(N)nn3cc(F)cnc23)CC1=O` [I-N-212, 2-amino-6-fluoro-N-(5-fluoro-4-(4-methyl-3-oxopiperazin-1-yl)pyridin-3-yl)pyrazolo[1,5-a]pyrimidine-3-carboxamide], the “Cisplatin Sensitization Assay” value was “+++ (Cisplatin sensitization value of <0.02 μM)”.

Consider `Nc1nn2cc(F)cnc2c1C(=O)Nc1cncc(F)c1N1CCC(CN2CCCC2=O)CC1` [I-N-213, 2-amino-6-fluoro-N-(5-fluoro-4-(4-((2-oxopyrrolidin-1-yl)methyl)piperidin-1-yl)pyridin-3-yl)pyrazolo[1,5-a]pyrimidine-3-carboxamide], for which the “Cisplatin Sensitization Assay” value is on record as “+++ (Cisplatin sensitization value of <0.02 μM)”.

`CN1CCCCC1C(=O)N1CCN(c2c(F)cncc2NC(=O)c2c(N)nn3cc(F)cnc23)CC1` (stereo not drawn) [I-N-214, 2-amino-6-fluoro-N-(5-fluoro-4-(4-(1-methylpiperidine-2-carbonyl)piperazin-1-yl)pyridin-3-yl)pyrazolo[1,5-a]pyrimidine-3-carboxamide]: the “Cisplatin Sensitization Assay” value is “++ (Cisplatin sensitization value>0.02 μM but <0.2 μM)”.

In the case of `CS(=O)(=O)CC1CCN(c2ccncc2NC(=O)c2c(N)nn3cc(F)cnc23)CC1` [I-N-215, 2-amino-6-fluoro-N-(4-(4-((methylsulfonyl)methyl)piperidin-1-yl)pyridin-3-yl)pyrazolo[1,5-a]pyrimidine-3-carboxamide], the “Cisplatin Sensitization Assay” value was “+++ (Cisplatin sensitization value of <0.02 μM)”.

`CN1CC2(CCN(c3ccncc3NC(=O)c3c(N)nn4cc(F)cnc34)CC2)OC1=O` [I-N-216, 2-amino-6-fluoro-N-(4-(3-methyl-2-oxo-1-oxa-3,8-diazaspiro[4.5]decan-8-yl)pyridin-3-yl)pyrazolo[1,5-a]pyrimidine-3-carboxamide]: the “Cisplatin Sensitization Assay” value is “+++ (Cisplatin sensitization value of <0.02 μM)”.

Regarding `Nc1nn2cc(F)cnc2c1C(=O)Nc1cnccc1N1CCN2C(=O)CC[C@H]2C1` [I-N-217, (S)-2-amino-6-fluoro-N-(4-(6-oxohexahydropyrrolo[1,2-a]pyrazin-2(1H)-yl)pyridin-3-yl)pyrazolo[1,5-a]pyrimidine-3-carboxamide], the “Cisplatin Sensitization Assay” value is listed as “++ (Cisplatin sensitization value>0.02 μM but <0.2 μM)”.

Turning to `Cc1nc(C)n(-c2ccncc2NC(=O)c2c(N)nn3cc(F)cnc23)n1` [I-N-218, 2-amino-N-(4-(3,5-dimethyl-1H-1,2,4-triazol-1-yl)pyridin-3-yl)-6-fluoropyrazolo[1,5-a]pyrimidine-3-carboxamide], the “Cisplatin Sensitization Assay” value is on record as “+ (Cisplatin sensitization value>0.2 μM but <5 μM)”.

On to `Nc1nn2cc(F)cnc2c1C(=O)Nc1cnccc1-n1ccnc1C(F)(F)F` [I-N-219, 2-amino-6-fluoro-N-(4-(2-(trifluoromethyl)-1H-imidazol-1-yl)pyridin-3-yl)pyrazolo[1,5-a]pyrimidine-3-carboxamide], for which the “Cisplatin Sensitization Assay” value is “+++ (Cisplatin sensitization value of <0.02 μM)”.

In the case of `CC1(C)CCCN1c1ccncc1NC(=O)c1c(N)nn2cc(F)cnc12` [I-N-220, 2-amino-N-(4-(2,2-dimethylpyrrolidin-1-yl)pyridin-3-yl)-6-fluoropyrazolo[1,5-a]pyrimidine-3-carboxamide], the “Cisplatin Sensitization Assay” value is “++ (Cisplatin sensitization value>0.02 μM but <0.2 μM)”.

With `CS(=O)(=O)C1CCCN(c2ccncc2NC(=O)c2c(N)nn3cc(F)cnc23)C1` (stereo not drawn) [I-N-221, 2-amino-6-fluoro-N-(4-(3-(methylsulfonyl)piperidin-1-yl)pyridin-3-yl)pyrazolo[1,5-a]pyrimidine-3-carboxamide], the “Cisplatin Sensitization Assay” value is listed as “++ (Cisplatin sensitization value>0.02 μM but <0.2 μM)”.

Regarding `Nc1nn2cc(F)cnc2c1C(=O)Nc1cnccc1N1CC(=O)N2CCCC2C1` (stereo not drawn) [I-N-222, 2-amino-6-fluoro-N-(4-(4-oxohexahydropyrrolo[1,2-a]pyrazin-2(1H)-yl)pyridin-3-yl)pyrazolo[1,5-a]pyrimidine-3-carboxamide], the “Cisplatin Sensitization Assay” value is on record as “++ (Cisplatin sensitization value>0.02 μM but <0.2 μM)”.

`Cc1ccnn1-c1ccncc1NC(=O)c1c(N)nn2cc(F)cnc12` [I-N-223, 2-amino-6-fluoro-N-(4-(5-methyl-1H-pyrazol-1-yl)pyridin-3-yl)pyrazolo[1,5-a]pyrimidine-3-carboxamide]: the “Cisplatin Sensitization Assay” value was “++ (Cisplatin sensitization value>0.02 μM but <0.2 μM)”.

Take `CN1C[C@@H]2CCN(c3ccncc3NC(=O)c3c(N)nn4cc(F)cnc34)C[C@@H]2C1=O` [I-N-224, 2-amino-6-fluoro-N-(4-((3aR,7aR)-2-methyl-3-oxohexahydro-1H-pyrrolo[3,4-c]pyridin-5(6H)-yl)pyridin-3-yl)pyrazolo[1,5-a]pyrimidine-3-carboxamide]: the “Cisplatin Sensitization Assay” value was “+ (Cisplatin sensitization value>0.2 μM but <5 μM)”.

With `Cc1ccn(-c2ccncc2NC(=O)c2c(N)nn3cc(F)cnc23)n1` [I-N-225, 2-amino-6-fluoro-N-(4-(3-methyl-1H-pyrazol-1-yl)pyridin-3-yl)pyrazolo[1,5-a]pyrimidine-3-carboxamide], the “Cisplatin Sensitization Assay” value was “++ (Cisplatin sensitization value>0.02 μM but <0.2 μM)”.

Regarding `Nc1nn2cc(F)cnc2c1C(=O)Nc1cnccc1N1CCC2(CC1)COC2` [I-N-226, N-(4-(2-oxa-7-azaspiro[3.5]nonan-7-yl)pyridin-3-yl)-2-amino-6-fluoropyrazolo[1,5-a]pyrimidine-3-carboxamide], the “Cisplatin Sensitization Assay” value is on record as “+++ (Cisplatin sensitization value of <0.02 μM)”.

Turning to `CN1CCOCC1C(=O)N1CCN(c2c(F)cncc2NC(=O)c2c(N)nn3cc(F)cnc23)CC1` (stereo not drawn) [I-N-227, 2-amino-6-fluoro-N-(5-fluoro-4-(4-(4-methylmorpholine-3-carbonyl)piperazin-1-yl)pyridin-3-yl)pyrazolo[1,5-a]pyrimidine-3-carboxamide], the “Cisplatin Sensitization Assay” value is “+++ (Cisplatin sensitization value of <0.02 μM)”.

Consider `Nc1nn2cc(F)cnc2c1C(=O)Nc1cncc(F)c1N1CCN(CC(=O)N2CCC2)CC1` [I-N-228, 2-amino-N-(4-(4-(2-(azetidin-1-yl)-2-oxoethyl)piperazin-1-yl)-5-fluoropyridin-3-yl)-6-fluoropyrazolo[1,5-a]pyrimidine-3-carboxamide], for which the “Cisplatin Sensitization Assay” value is recorded as “+++ (Cisplatin sensitization value of <0.02 μM)”.

Consider `CN1CC2(CCN(c3c(F)cncc3NC(=O)c3c(N)nn4cc(F)cnc34)CC2)OC1=O` [I-N-229, 2-amino-6-fluoro-N-(5-fluoro-4-(3-methyl-2-oxo-1-oxa-3,8-diazaspiro[4.5]decan-8-yl)pyridin-3-yl)pyrazolo[1,5-a]pyrimidine-3-carboxamide], for which the “Cisplatin Sensitization Assay” value was “+++ (Cisplatin sensitization value of <0.02 μM)”.

Take `Nc1nn2cc(F)cnc2c1C(=O)Nc1cnccc1N1CCC(N2CCCC2=O)CC1` [I-N-230, 2-amino-6-fluoro-N-(4-(4-(2-oxopyrrolidin-1-yl)piperidin-1-yl)pyridin-3-yl)pyrazolo[1,5-a]pyrimidine-3-carboxamide]: the “Cisplatin Sensitization Assay” value is reported as “+++ (Cisplatin sensitization value of <0.02 μM)”.

With `CN1CC2(CCC1=O)CCN(c1ccncc1NC(=O)c1c(N)nn3cc(F)cnc13)CC2` [I-N-231, 2-amino-6-fluoro-N-(4-(2-methyl-3-oxo-2,9-diazaspiro[5.5]undecan-9-yl)pyridin-3-yl)pyrazolo[1,5-a]pyrimidine-3-carboxamide], the “Cisplatin Sensitization Assay” value was “+++ (Cisplatin sensitization value of <0.02 μM)”.

On to `Nc1nn2cc(F)cnc2c1C(=O)Nc1cncc(F)c1N1CC(=O)N2CCCC2C1` (stereo not drawn) [I-N-232, 2-amino-6-fluoro-N-(5-fluoro-4-(4-oxohexahydropyrrolo[1,2-a]pyrazin-2(1H)-yl)pyridin-3-yl)pyrazolo[1,5-a]pyrimidine-3-carboxamide], for which the “Cisplatin Sensitization Assay” value is reported as “++ (Cisplatin sensitization value>0.02 μM but <0.2 μM)”.

As to `CN1CCN2CCN(c3ccncc3NC(=O)c3c(N)nn4cc(F)cnc34)CC2C1=O` (stereo not drawn) [I-N-233, 2-amino-6-fluoro-N-(4-(8-methyl-9-oxohexahydro-1H-pyrazino[1,2-a]pyrazin-2(6H)-yl)pyridin-3-yl)pyrazolo[1,5-a]pyrimidine-3-carboxamide], the “Cisplatin Sensitization Assay” value is “++ (Cisplatin sensitization value>0.02 μM but <0.2 μM)”.

Consider `CN(C)C(=O)C1CN(c2ccncc2NC(=O)c2c(N)nn3cc(F)cnc23)CCO1` (stereo not drawn) [I-N-234, 4-(3-(2-amino-6-fluoropyrazolo[1,5-a]pyrimidine-3-carboxamido)pyridin-4-yl)-N,N-dimethylmorpholine-2-carboxamide], for which the “Cisplatin Sensitization Assay” value is given as “+ (Cisplatin sensitization value>0.2 μM but <5 μM)”.

For the compound `CN1C(=O)CCC12CCN(c1ccncc1NC(=O)c1c(N)nn3cc(F)cnc13)CC2` [I-N-235, 2-amino-6-fluoro-N-(4-(1-methyl-2-oxo-1,8-diazaspiro[4.5]decan-8-yl)pyridin-3-yl)pyrazolo[1,5-a]pyrimidine-3-carboxamide], the “Cisplatin Sensitization Assay” value is given as “++ (Cisplatin sensitization value>0.02 μM but <0.2 μM)”.
